We go through 38 molecules from US20150225369A1, “DDR2 INHIBITORS FOR THE TREATMENT OF OSTEOARTHRITIS” (Merck Patent GmbH, priority 2012, published 2015).

pIC50: −log10 of the molar value.

The first test has as its target T1, His-tagged human recombinant DDR-2 kinase domain (His-TEV-DDR2 467-855 aa) (Homo sapiens, UniProt Q16832).
T1 construct: His-TEV-DDR2 467-855 aa
T1 sequence (Q16832 467-855): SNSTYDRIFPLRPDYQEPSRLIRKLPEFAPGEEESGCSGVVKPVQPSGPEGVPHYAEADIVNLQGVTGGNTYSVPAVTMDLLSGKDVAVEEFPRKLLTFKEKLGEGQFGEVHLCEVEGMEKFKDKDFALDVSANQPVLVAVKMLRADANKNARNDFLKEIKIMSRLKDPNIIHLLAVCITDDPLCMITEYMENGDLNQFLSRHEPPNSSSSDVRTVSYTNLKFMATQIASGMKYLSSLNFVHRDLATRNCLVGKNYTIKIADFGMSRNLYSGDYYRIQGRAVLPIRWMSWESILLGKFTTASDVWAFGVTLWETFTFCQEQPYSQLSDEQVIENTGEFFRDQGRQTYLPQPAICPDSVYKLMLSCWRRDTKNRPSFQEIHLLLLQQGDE
The test is described as follows: Autophosphorylation assay for biochemical activity testing of DDR2 (HTRF). To be noted: 4 nM DDR2 kinase domain, 150 μM ATP, 150 min at 22° C. The procedure, abridged:
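Phospho-tyrosine was detected by HTRF between XL665 anti-6His and cryptate anti-phosphotyrosine PT66 antibodies, using the emission ratio. Inhibition was referenced to the inhibitor-free reaction.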
(In general: Time-resolved FRET reads energy transfer from a long-lived donor to a nearby acceptor.)
On to `CNC(=O)c1cc(Oc2ccc(CNC(=O)Nc3ccccn3)cc2)ccn1` [compound 3], for which the pIC50 is 5.42.
As for `CNC(=O)c1cc(Oc2ccc(CNC(=O)Nc3cc(Cl)nc(Cl)c3)cc2)ccn1` [compound 2], the pIC50 was 5.82.
On the same count and under the same terms, under `CNC(=O)c1cc(Oc2ccc(CNC(=O)Nc3cccnc3)cc2)ccn1` [compound 5] stands 4.82.
The same measure, in the same setting: under `CNC(=O)c1cc(Oc2ccc(CNC(=O)Nc3cccnc3Cl)cc2)ccn1` [compound 16] stands 4.96.
Consider `COc1ncc(C)cc1NC(=O)NCc1ccc(Oc2ccnc(C)c2)c(C)c1` [compound 31], for which the pIC50 is 6.64.

The same test, now with this note: biochemical DDR2 autophosphorylation.
For `CNC(=O)c1cc(Oc2ccc(CNC(=O)Nc3cc(C(F)(F)F)c(Cl)cc3OCCN3C(=O)c4ccccc4C3=O)cc2)ccn1` [compound 242, 4-[4-(3-{4-Chloro-2-[2-(1,3-dioxo-1,3-dihydro-isoindol-2-yl)-ethoxy]-5-trifluoromethyl-phenyl}-ureidomethyl)-phenoxy]-pyridine-2-carboxylic acid methylamide], the pIC50 is 6.36.
Turning to `Cc1cccc(NC(=O)NCc2ccc(Oc3ccncc3)cc2)c1` [compound 6], the pIC50 was 6.00.
Same read-out and setting: under `CC(=O)Nc1cc(Oc2ccc(CNC(=O)Nc3cc(C)c(Cl)cc3OCCN(C)C)cc2C)ccn1` [compound 247, N-[4-(4-{3-[4-Chloro-2-(2-dimethylamino-ethoxy)-5-methyl-phenyl]-ureidomethyl}-2-methyl-phenoxy)-pyridin-2-yl]-acetamide] stands 8.22; under `CNC(=O)c1cc(Oc2ccc(CNC(=O)Nc3cc(C(F)(F)F)c(Cl)cc3OCC(=O)O)cc2)ccn1` [compound 98, (5-Chloro-2-{3-[4-(2-methylcarbamoyl-pyridin-4-yloxy)-benzyl]-ureido}-4-trifluoromethyl-phenoxy)-acetic acid], 5.48; under `CCc1cccc(NC(=O)NCc2ccc(Oc3ccncc3)cc2)c1` [compound 61, 1-(3-Ethyl-phenyl)-3-[4-(pyridin-4-yloxy)-benzyl]-urea], 6.31.
The same measure, in the same setting: under `CNC(=O)c1cc(Oc2ccc(CNC(=O)Nc3ccccn3)cc2)ccn1` [compound 85, 4-{4-[(3-Pyridin-2-yl-ureido)-methyl]-phenoxy}-pyridine-2-carboxylic acid methylamide] stands 5.42; under `O=C(NCc1ccc(Oc2ccncc2)cc1)Nc1cccc(Br)c1` [compound 53, 1-(3-Bromo-phenyl)-3-[4-(pyridin-4-yloxy)-benzyl]-urea], 7.25; under `CNC(=O)c1cc(Oc2ccc(CNC(=O)Nc3cc(C(F)(F)F)c(Cl)cc3OCCN)cc2)ccn1` [compound 140, 4-(4-{3-[2-(2-Amino-ethoxy)-4-chloro-5-trifluoromethyl-phenyl]-ureidomethyl}-phenoxy)-pyridine-2-carboxylic acid methylamide], 6.92.
On to `Cc1ccccc1NC(=O)NCc1ccc(Oc2ccncc2)cc1` [compound 29], for which the pIC50 is not above 4.00.
Still for that read-out and setting: under `CNC(=O)c1cc(Oc2ccc(CNC(=O)Nc3cc(C(F)(F)F)ccc3OCCN3CCCC3)cc2)ccn1` [compound 106, 4-(4-{3-[2-(2-Pyrrolidin-1-yl-ethoxy)-5-trifluoromethyl-phenyl]-ureidomethyl}-phenoxy)-pyridine-2-carboxylic acid methylamide] stands 6.85; under `CNC(=O)c1cc(Oc2ccc(CNC(=O)Nc3cc(C(F)(F)F)ccc3OC3CCNCC3)cc2)ccn1` [compound 115, 4-(4-{3-[2-(Piperidin-4-yloxy)-5-trifluoromethyl-phenyl]-ureidomethyl}-phenoxy)-pyridine-2-carboxylic acid methylamide], 7.70; under `Cc1cc(NC(=O)NCc2ccc(Oc3ccncc3)cc2)ccc1Br` [compound 58, 1-(4-Bromo-3-methyl-phenyl)-3-[4-(pyridin-4-yloxy)-benzyl]-urea], 5.33.
On the same count and under the same terms, under `O=C(NCc1ccc(Oc2ccncc2)cc1)Nc1ccccc1` [compound 245, 1-Phenyl-3-[4-(pyridin-4-yloxy)-benzyl]-urea] stands 5.04.
Same read-out and setting: under `CNC(=O)c1cc(Oc2ccc(CNC(=O)Nc3cc(C(F)(F)F)c(Cl)cc3OCCNS(C)(=O)=O)cc2)ccn1` [compound 194, 4-(4-{3-[4-Chloro-2-(2-methanesulfonylamino-ethoxy)-5-trifluoromethyl-phenyl]-ureidomethyl}-phenoxy)-pyridine-2-carboxylic acid methylamide] stands 7.19; under `CNC(=O)c1cc(Oc2ccc(CNC(=O)Nc3cc(C(F)(F)F)c(Cl)cc3OC)cc2F)ccn1` [compound 231, 4-{4-[3-(4-Chloro-2-methoxy-5-trifluoromethyl-phenyl)-ureidomethyl]-2-fluoro-phenoxy}-pyridine-2-carboxylic acid methylamide], 7.00.
For the molecule `CNC(=O)c1cc(Oc2ccc(CNC(=O)Nc3cc(C)ccc3OC)cc2)ccn1` [compound 75, 4-{4-[3-(2-Methoxy-5-methyl-phenyl)-ureidomethyl]-phenoxy}-pyridine-2-carboxylic acid methylamide], the pIC50 was 7.16.
On the same count and under the same terms, under `O=C(NCc1ccc(Oc2ccncc2)cc1)Nc1ccc(Cl)c(Cl)c1` [compound 38, 1-(3,4-Dichloro-phenyl)-3-[4-(pyridin-4-yloxy)-benzyl]-urea] stands 5.68.
The same measure, in the same setting: under `CNC(=O)c1cc(Oc2ccc(CNC(=O)Nc3cc(C)ccc3OC3CCNCC3)cc2)ccn1` [compound 159, 4-(4-{3-[5-Methyl-2-(piperidin-4-yloxy)-phenyl]-ureidomethyl}-phenoxy)-pyridine-2-carboxylic acid methylamide] stands 7.08; under `O=C(NCc1ccc(Oc2ccncc2)cc1)Nc1ccc(Br)cc1` [compound 9], 5.42.
On the same count and under the same terms, under `CCN(CC)CCOc1ccc(C(F)(F)F)cc1NC(=O)NCc1ccc(Oc2ccnc(C(=O)NC)c2)cc1` [compound 108, 4-(4-{3-[2-(2-Diethylamino-ethoxy)-5-trifluoromethyl-phenyl]-ureidomethyl}-phenoxy)-pyridine-2-carboxylic acid methylamide] stands 7.52; under `CNC(=O)c1cc(Oc2ccc(CNC(=O)Nc3cc(C)c(Cl)cc3OCCN3CCOCC3)c(C)c2)ccn1` [compound 133, 4-(4-{3-[4-Chloro-5-methyl-2-(2-morpholin-4-yl-ethoxy)-phenyl]-ureidomethyl}-3-methyl-phenoxy)-pyridine-2-carboxylic acid methylamide], 5.70.
On to `O=C(NCc1ccc(Oc2ccncc2)cc1)Nc1cc(Cl)c(Cl)cc1Cl` [compound 2], for which the pIC50 is 5.85.
Same read-out and setting: under `O=C(NCc1ccc(Oc2ccncc2)cc1)Nc1cc(C(F)(F)F)ccc1Cl` [compound 43, 1-(2-Chloro-5-trifluoromethyl-phenyl)-3-[4-(pyridin-4-yloxy)-benzyl]-urea] stands 7.38; under `COc1ccccc1NC(=O)NCc1ccc(Oc2ccncc2)cc1` [compound 36, 1-(2-Methoxy-phenyl)-3-[4-(pyridin-4-yloxy)-benzyl]-urea], 5.77.
With `CC(C)(C)c1ccc(NC(=O)NCc2ccc(Oc3ccncc3)cc2)cc1` [compound 56, 1-(4-tert-Butyl-phenyl)-3-[4-(pyridin-4-yloxy)-benzyl]-urea], the pIC50 is 4.80.
The same measure, in the same setting: under `O=C(NCc1ccc(Oc2ccncc2)cc1)Nc1ccc(F)c(C(F)(F)F)c1` [compound 46, 1-(4-Fluoro-3-trifluoromethyl-phenyl)-3-[4-(pyridin-4-yloxy)-benzyl]-urea] stands 7.00; under `COc1ccc(C(F)(F)F)cc1NC(=O)NCc1ccc(Oc2ccncc2)cc1` [compound 62, 1-(2-Methoxy-5-trifluoromethyl-phenyl)-3-[4-(pyridin-4-yloxy)-benzyl]-urea], 8.70.
With `CNC(=O)c1cc(Oc2ccc(CNC(=O)Nc3ncc(C(F)(F)F)cc3Cl)cc2)ccn1` [compound 91, 4-{4-[3-(3-Chloro-5-trifluoromethyl-pyridin-2-yl)-ureidomethyl]-phenoxy}-pyridine-2-carboxylic acid methylamide], the pIC50 was 5.18.
Same read-out and setting: under `CNC(=O)c1cc(Oc2ccc(CNC(=O)Nc3cc(C(F)(F)F)ccc3OCCO)cc2)ccn1` [compound 197, 4-(4-{3-[2-(2-Hydroxy-ethoxy)-5-trifluoromethyl-phenyl]-ureidomethyl}-phenoxy)-pyridine-2-carboxylic acid methylamide] stands 7.02; under `O=C(NCc1ccc(Oc2ccncc2)cc1)Nc1ccc(Cl)cc1C(F)(F)F` [compound 40, 1-(4-Chloro-2-trifluoromethyl-phenyl)-3-[4-(pyridin-4-yloxy)-benzyl]-urea], 5.00; under `Cc1ccc(NC(=O)NCc2ccc(Oc3ccncc3)cc2)cc1Cl` [compound 27], 6.13.
For `CNC(=O)c1cc(Oc2ccc(CNC(=O)Nc3cc(C(F)(F)F)ccc3OC)cc2C)ccn1` [compound 102, 4-{4-[3-(2-Methoxy-5-trifluoromethyl-phenyl)-ureidomethyl]-2-methyl-phenoxy}-pyridine-2-carboxylic acid methylamide], the pIC50 was 7.30.
Same read-out and setting: under `O=C(NCc1ccc(Oc2ccncc2)cc1)Nc1ccc(C(F)(F)F)cc1` [compound 21] stands 5.70.

A word on the pIC50: it is the IC50 on a negative log10 scale, so that one unit is a factor of ten.
